Measurements as given in patent US20070060591A1, “Chemokine receptor binding heterocyclic compounds” (priority 1999, published 2007).
≈ marks a conversion by molar mass, not a printed value. Like-named read-outs stand apart in the source and are kept apart here.

Experiments:
[1] = crosslinker bond, 14-membered ring, Cs2CO3, DMF
HIV-1 (HTLV-IIIB) = test: microbe, parasite or virus in culture; type: cell-based; conditions: MT-4 cells
Description: (§1) The compounds of the invention were tested in a screen by the MTT method (J. Virol. Methods […] (1988)). MT-4 cells (2.5×10^4/well) were challenged with HIV-1 (HTLV-IIIB) or HIV-2 (LAV-2 ROD) at a concentration of 100 CCID50 and incubated in the presence of various concentrations of the test compounds, which were added immediately after challenge with the virus. After 5 days culture at 37° C. in a CO2 incubator, the number of viable cells was assessed by the MTT (tetrazolium) method. […] The potential therapeutic usefulness was assessed by calculating a Selectivity Index (SI) corresponding to the ratio of CC50 to EC50.

HIV-2 (LAV-2 ROD) = test: Anti-HIV-2 screen by the MTT method in MT-4 cells; type: cell-based; conditions: 100 CCID50, 5 days
Description: as §1

MT-4 cells = test: in vitro; type: cell-based
Description: as §1

CXCR-4 [2] = biological target: T1, CXCR-4 (Homo sapiens, UniProt P61073); test: Inhibition of mAb 12G5 binding to CXCR-4 in SUP-T1 cells
T1 construct: endogenous in cells; host or cells: SUP-T1 cells

CXCR-4 [3] = biological target: T1, CXCR-4; test: Inhibition of signal transduction (Ca2+ flux) induced by SDF-1α binding to CXCR-4 on SUP-T1 cells; type: cell-based; conditions: SDF-1α induced; for inhibition at 1 µg/mL: 1 μg/ml, read-out: % Inhibition of Ca2+ flux (conc)
[4] = from CCOP(=O)(OCC)N(CCCCCCCNC(=O)CBr)CCNS(=O)(=O)c1ccccc1[N+](=O)[O-]; amine bond; K2CO3; acetonitrile; 0.6 mM; 60.0 °C; 24.0 h
HIV-1 BaL = test: Inhibition of infection of U87.CD4.CCR5 by HIV-1 BaL; type: cell-based; conditions: U87.CD4.CCR5 cells
in vitro = type: cell-based; conditions: human
Description: as §1

T1 sequence (P61073 whole entry): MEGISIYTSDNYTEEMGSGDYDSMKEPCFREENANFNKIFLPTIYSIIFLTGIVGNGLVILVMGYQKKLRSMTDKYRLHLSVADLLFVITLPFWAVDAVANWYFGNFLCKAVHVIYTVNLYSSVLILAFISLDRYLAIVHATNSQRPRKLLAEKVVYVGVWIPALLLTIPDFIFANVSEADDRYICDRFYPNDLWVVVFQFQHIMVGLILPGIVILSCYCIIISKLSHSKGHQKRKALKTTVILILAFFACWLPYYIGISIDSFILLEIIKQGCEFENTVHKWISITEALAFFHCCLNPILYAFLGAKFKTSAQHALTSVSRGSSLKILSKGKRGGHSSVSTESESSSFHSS
Description for DBA/1 IFN-γ RKO mice: The control group consisted of ten mice that were injected with collagen as discussed below.
The experiments were performed in 8- to 12-week old mice, but in each experiment, the mutant and wild-type mice were age-matched with a 5 day limit. The male to female ratio was kept between 0.8 and 1.3 in each experimental group.
Native chicken collagen type II (EPC, Owensvillle, Mo.) was dissolved in 0.05 M acetic acid at 2 mg/ml by stirring overnight at 6° C., and emulsified in an equal volume of incomplete (IFA) or complete Freund's adjuvant (CFA) containing 1.5 mg/ml heat killed Mycobacterium butyricum (Difco, Detroit, Mich.). Mice were sensitized with a single 100 μl intradermal injection of the emulsion at the base of the tail. Mice were examined daily for signs of arthritis. The disease severity was recorded following a scoring system for each limb. Score 0: normal; score 1: redness and/or swelling in one joint; score 2: redness and/or swelling in more than one joint; score 3: redness and/or welling in the entire paw; score 4: deformity and/or ankylosis.

Molecule: bis(3-nitrobenzenesulfonylaminopropyl)ether? + N-(diethoxyphosphoryl)-O,O′-bis(2-methylsulfonyl)diethanolamine
- ring closure, isolated yield ([1]; the molecule shown is the open-chain precursor, 18.0 mM, 80.0 °C): 55%

Molecule: SCCNCc1ccc(CN2CCCNCCNCCCNCC2)cc1 [AMD3530, N-[1,4,8,11-Tetraazacyclotetradecanyl-1,4-phenylenebis(methylene)]-2-(amino-ethyl)mercaptan]
- EC50 HIV-1 (IIIB) (HIV-1 (HTLV-IIIB); 100 CCID50, 5 days, MTT): 0.5 µg/mL (≈ 1.32 µM)
- EC50 HIV-2 (HIV-2 (LAV-2 ROD)): 2.0 µg/mL (≈ 5.27 µM)
- CC50 (MT-4 cells): 175 µg/mL (≈ 461 µM)

Molecule: CN(Cc1ccc(CN2CCCNCCNCCCNCC2)cc1)Cc1ccccn1 [AMD3538, N-[1,4,8,11-Tetraazacyclotetradecanyl-1,4-phenylenebis(methylene)]-N-methyl-2-(aminomethyl)pyridine]
- EC50 HIV-1 (IIIB) (HIV-1 (HTLV-IIIB); 100 CCID50, 5 days, MTT): 0.1 µg/mL (≈ 0.235 µM)
- EC50 HIV-2 (HIV-2 (LAV-2 ROD)): 6.7 µg/mL (≈ 15.8 µM)
- CC50 (MT-4 cells): 209 µg/mL (≈ 492 µM)

Molecule: c1ccc(CNCc2ccc(CN3CCNCCNCCc4cccc(n4)CC3)cc2)nc1 [AMD7063, N-[4-[4,7,10,17-Tetraazabicyclo[13.3.1]heptadeca-1(17),13,15-trienyl]-1,4-phenylenebis(methylene)]-2-(aminomethyl)pyridine]
- IC50 (CXCR-4 [2]): 20.2 nM
- inhibition at 1 µg/mL (CXCR-4 [3]): 100%

Molecule: CCOP(=O)(OCC)N1CCCCCCCNC(=O)CN(S(=O)(=O)c2ccccc2[N+](=O)[O-])CC1
- ring closure, yield of all isomers [4]: 90%

Molecule: c1ccc(N2CCN(Cc3ccc(CN4CCCNCCNCCCNCC4)cc3)CC2)cc1 [AMD3526, 1-[1,4,8,11-Tetraazacyclotetradecanyl-1,4-phenylenebis(methylene)]-4-phenylpiperazine]
- IC50 against infection of U87.CD4.CCR5 by HIV-1 BaL (HIV-1 BaL): 82 µg/mL

Molecule: c1ccc(CNCc2ccc(CN3CCNCCc4cccc(n4)CCNCC3)cc2)nc1 [AMD7050, N-[7-(4,7,10,17-Tetraazabicyclo[13.3.1]heptadeca-1(17),13,15-trienyl)-1,4-phenylenebis(methylene)]-2-(aminomethyl)pyridine]
- IC50 (CXCR-4 [2]): 2.25 nM
- inhibition at 1 µg/mL (CXCR-4 [3]): 100%

Molecule: c1ccc(CNCc2ccc(CN3CCCNCCNCCCNCC3)cc2)nc1 [AMD3465, N-[1,4,8,11-Tetraazacyclotetradecanyl-1,4-phenylenebis(methylene)]-2-(amino-methyl)pyridine]
- SI HIV-1 (Selectivity Index, ratio of CC50 to EC50) (HIV-1 (HTLV-IIIB); HIV-1 (IIIB)): 3 × 10^4
- EC50 (HIV-1 (HTLV-IIIB); Human immunodeficiency virus 1, IIIB, MT4, 120 h, 100 CCID50, 5 days, MTT): 0.008 µg/mL (≈ 0.0195 µM)
- EC50 (HIV-2 (LAV-2 ROD); Human immunodeficiency virus 2, MT4, 120 h): 0.032 µg/mL (≈ 0.0779 µM)
- CC50 at 5 days (in vitro): > 250 µg/mL
- IC50 (CXCR-4 [2]): 7.31 nM
- IC50 (CXCR-4 [3]): 2.44 nM

Molecule: c1cc(CNCc2ccc(CN3CCCNCCNCCCNCC3)cc2)ccn1 [AMD3500]
- EC50 HIV-1 (IIIB) (HIV-1 (HTLV-IIIB); 100 CCID50, 5 days, MTT): 0.6 µg/mL (≈ 1.46 µM)
- EC50 HIV-2 (HIV-2 (LAV-2 ROD)): 10.3 µg/mL (≈ 25.1 µM)
- CC50 (MT-4 cells): >250 µg/mL

Molecule: c1nc(CCNCc2ccc(CN3CCCNCCNCCCNCC3)cc2)c[nH]1 [AMD3543, N-[1,4,8,11-Tetraazacyclotetradecanyl-1,4-phenylenebis(methylene)]-4-(amino-ethyl)imidazole]
- EC50 HIV-1 (IIIB) (HIV-1 (HTLV-IIIB); 100 CCID50, 5 days, MTT): 0.2 µg/mL (≈ 0.484 µM)
- EC50 HIV-2 (HIV-2 (LAV-2 ROD)): 1.0 µg/mL (≈ 2.42 µM)
- CC50 (MT-4 cells): 239 µg/mL (≈ 578 µM)

Molecule: Clc1cc(CN2CCCNCCNCCCNCC2)cc(Cl)n1 [AMD3451, 1-[2,6-Dichloropyrid-4-yl(methylene)]-1,4,8,11-tetraazacyclotetradecane]
- IC50 against infection of U87.CD4.CCR5 by HIV-1 BaL (HIV-1 BaL): 8.9 µg/mL

Molecule: c1ccc(CNCc2ccc(CN3CCNCCc4cccc(c4)CCNCC3)cc2)nc1 [AMD7051, N-[7-(4,7,10-Triazabicyclo[13.3.1]heptadeca-1(17),13,15-trienyl)-1,4-phenylenebis(methylene)]-2-(aminomethyl)pyridine]
- IC50 (CXCR-4 [2]): 15.8 nM
- inhibition at 1 µg/mL (CXCR-4 [3]): 100%

Molecule: c1ccc(CNCc2ccc(CN3CCCNCCNCCCNCC3)cc2)cc1 [AMD3529, N-[1,4,8,11-Tetraazacyclotetradecanyl-1,4-phenylenebis(methylene)]-benzylamine]
- EC50 HIV-1 (IIIB) (HIV-1 (HTLV-IIIB); 100 CCID50, 5 days, MTT): 0.4 µg/mL (≈ 0.977 µM)
- EC50 HIV-2 (HIV-2 (LAV-2 ROD)): 2.6 µg/mL (≈ 6.35 µM)
- CC50 (MT-4 cells): 130 µg/mL (≈ 317 µM)

Molecule: SDF-1α
- Inhibition of mAb 12G5 binding IC50 (CXCR-4 [2]): 0.27 µg/mL

Molecule: Cc1cnc(CNCc2ccc(CN3CCCNCCNCCCNCC3)cc2)cn1 [AMD3498, N-[1,4,8,11-Tetraazacyclotetradecanyl-1,4-phenylenebis(methylene)]-(2-amino-methyl-5-methyl)pyrazine]
- EC50 HIV-1 (IIIB) (HIV-1 (HTLV-IIIB); 100 CCID50, 5 days, MTT): 0.2 µg/mL (≈ 0.47 µM)
- EC50 HIV-2 (HIV-2 (LAV-2 ROD)): 7.1 µg/mL (≈ 16.7 µM)
- CC50 (MT-4 cells): >250 µg/mL

Molecule: c1cc(CN2CCCNCCNCCCNCC2)ccc1CN1CCCNCCNCCCNCC1 [AMD3100]
- IC50 (HIV-1 BaL; Human immunodeficiency virus 1, BAL, read-out: IC50 against infection of U87.CD4.CCR5 by HIV-1 BaL): > 100 µg/mL
- animals demonstrating arthritis (DBA/1 IFN-γ RKO mice; 14 days after treatment, i.v. osmotic pump, 5 mg/ml over 14 days, control 7 of ten): 1 of the 8
- body weight loss of treated animals compared with control animals (DBA/1 IFN-γ RKO mice; collagen-injected mice): did not demonstrate any significant body weight loss
- time until the single treated animal developed arthritic pathology (DBA/1 IFN-γ RKO mice; post-treatment): > 20 days

Molecule: c1ccc(CNCc2ccc(CN3CCCCCCCNCCNCC3)cc2)nc1 [AMD7059, N-[1-(1,4,7-Triazacyclotetra-decanyl)-1,4-phenylenebis(methylene)]-2-(aminomethyl)pyridine]
- IC50 (CXCR-4 [2]): > 2440 nM
- inhibition at 1 µg/mL (CXCR-4 [3]): 36%

Molecule: Nc1ccccc1CNCc1ccc(CN2CCCNCCNCCCNCC2)cc1 [AMD3517, N-[1,4,8,11-Tetraazacyclotetradecanyl-1,4-phenylenebis(methylene)]-2-amino-benzylamine]
- EC50 HIV-1 (IIIB) (HIV-1 (HTLV-IIIB); 100 CCID50, 5 days, MTT): 0.8 µg/mL (≈ 1.88 µM)
- EC50 HIV-2 (HIV-2 (LAV-2 ROD)): 10.6 µg/mL (≈ 25 µM)
- CC50 (MT-4 cells): 153 µg/mL (≈ 360 µM)

Molecule: bis(3-nitrobenzenesulfonylaminopropyl)ether + Methanesulfonic acid, 5-methanesulfonyloxy-3-(4-{[( [...]
- ring closure, isolated yield ([1]; the molecule shown is the open-chain precursor, 6.3 mM, 80.0 °C): 51%

Molecule: CCOP(=O)(OCC)N1CCN(S(=O)(=O)c2ccccc2[N+](=O)[O-])CCCC(F)CCCN(S(=O)(=O)c2ccccc2[N+](=O)[O-])CC1
- ring closure, isolated yield ([1]; from bis-[2-(2-nitro-benzenesulfonylamino)-ethyl]-phosphoramidic acid diethyl ester + 1,7-bis(toluene-4-sulfonic acid)-4-fluoro-heptyl-ester, 15.9 mM, 85.0 °C): 55%

Molecule: Clc1ccc(CN2CCCNCCNCCCNCC2)cn1 [AMD3454, 1-[2-Chloropyrid-5-yl(methylene)]-1,4,8,11-tetraazacyclotetradecane]
- IC50 against infection of U87.CD4.CCR5 by HIV-1 BaL (HIV-1 BaL): 32.3 µg/mL

Molecule: c1ccc(CCNCc2ccc(CN3CCCNCCNCCCNCC3)cc2)nc1 [AMD3497, N-[1,4,8,11-Tetraazacyclotetradecanyl-1,4-phenylenebis(methylene)]-2-(amino-ethyl)pyridine]
- EC50 HIV-1 (IIIB) (HIV-1 (HTLV-IIIB); 100 CCID50, 5 days, MTT): 1.8 µg/mL (≈ 4.24 µM)
- EC50 HIV-2 (HIV-2 (LAV-2 ROD)): 3.8 µg/mL (≈ 8.95 µM)
- CC50 (MT-4 cells): >250 µg/mL

Molecule: CCOP(=O)(OCC)N1CCN(S(=O)(=O)c2ccccc2[N+](=O)[O-])CCCC(F)(F)CCCN(S(=O)(=O)c2ccccc2[N+](=O)[O-])CC1
- ring closure, isolated yield ([1]; from bis-[2-(2-nitrobenzenesulfonylamino)-ethyl]-phosphoramidic acid diethyl ester + 1,7-bis(toluene-4-sulfonic acid)-4,4-difluoro-heptyl-ester, 15.4 mM, 85.0 °C): 19%

Molecule: c1ncc2ncn(Cc3ccc(CN4CCCNCCNCCCNCC4)cc3)c2n1 [AMD3472, N-[1,4,8,11-Tetraazacyclotetradecanyl-1,4-phenylenebis(methylene)]-purine]
- IC50 against infection of U87.CD4.CCR5 by HIV-1 BaL (HIV-1 BaL): 45.4 µg/mL

Molecule: c1ccc(CNCc2ccc(CN3CCNCCNCCc4cccc(c4)CC3)cc2)nc1 [AMD7058, N-[4-[4,7,10-Triazabicyclo[13.3.1]heptadeca-1(17),13,15-trienyl]-1,4-phenylenebis(methylene)]-2-(aminomethyl)pyridine]
- IC50 (CXCR-4 [2]): > 2250 nM
- inhibition at 1 µg/mL (CXCR-4 [3]): 44%

Molecule: Nc1ccc(CNCc2ccc(CN3CCCNCCNCCCNCC3)cc2)cc1 [AMD3544, N-[1,4,8,11-Tetraazacyclotetradecanyl-1,4-Ihenylenebis(methylene)]-4-amino-benzylamine]
- EC50 HIV-1 (IIIB) (HIV-1 (HTLV-IIIB); 100 CCID50, 5 days, MTT): 0.7 µg/mL (≈ 1.65 µM)
- EC50 HIV-2 (HIV-2 (LAV-2 ROD)): 3.7 µg/mL (≈ 8.71 µM)
- CC50 (MT-4 cells): 222 µg/mL (≈ 523 µM)

Molecule: c1csc(CNCc2ccc(CN3CCCNCCNCCCNCC3)cc2)c1 [AMD3516, N-[1,4,8,11-Tetraazacyclotetradecanyl-1,4-phenylenebis(methylene)]-2-(amino-methyl)thiophene]
- EC50 HIV-1 (IIIB) (HIV-1 (HTLV-IIIB); 100 CCID50, 5 days, MTT): 0.7 µg/mL (≈ 1.68 µM)
- EC50 HIV-2 (HIV-2 (LAV-2 ROD)): 9.8 µg/mL (≈ 23.6 µM)
- CC50 (MT-4 cells): 158 µg/mL (≈ 380 µM)

Molecule: c1ccc(CNCc2ccc(CN3CCNCCCCCCCNCC3)cc2)nc1 [AMD7049, N-[4-(1,4,7-Triazacyclotetra-decanyl)-1,4-phenylenebis(methylene)]-2-(aminomethyl)pyridine]
- IC50 (CXCR-4 [2]): 127 nM
- inhibition at 1 µg/mL (CXCR-4 [3]): 100%
